Experimental data: a compilation of properties of binary mixtures (doi:10.1016/j.molliq.2012.10.030)

Test: xn = mol fraction of the nth substance listed
Details: 101 kPa

CNc1ccccc1 + CC[n+]1ccn(C)c1.F[B-](F)(F)F
speed of sound [m/s]
Details	293.15 K	298.15 K	303.15 K	308.15 K
x1 = 0.0712	–	1614.7	1602.2	1590.8
x1 = 0.0944	–	1613.8	1601	–
x1 = 0.1175	–	1613.2	1600.3	1588.7
x1 = 0.1685	1624.3	1612.5	1599.3	1587.6
x1 = 0.2164	–	–	1599.5	1587
x1 = 0.2818	1626.5	1613.9	–	1587.3
x1 = 0.3365	1628.2	–	1601.2	1587.4
x1 = 0.3805	1629.4	1616.2	1602.2	–
x1 = 0.4166	1630.8	1617.3	1602.8	1587.8
x1 = 0.4775	1632.2	1617.7	1602.8	1587.7
x1 = 0.5287	1632.6	1617.9	1602.4	1586.3
x1 = 0.5855	1631.8	1616.5	1601.1	1584.2
x1 = 0.6144	1631	1615.8	1599.8	1583
x1 = 0.6638	1629.2	1612.8	1596.4	–
x1 = 0.7202	1625.3	1608.7	1591.8	1573.8
x1 = 0.7822	1618.8	1601.9	1584.4	1566.7
x1 = 0.8343	1612	1594.6	1577.1	1558.8
x1 = 0.8775	1605.6	1587.8	1570.3	1551.7

Cc1ccccc1N + CC[n+]1ccn(C)c1.F[B-](F)(F)F
speed of sound [m/s]
Details	293.15 K	298.15 K	303.15 K	308.15 K
x1 = 0.0684	1639.1	1625	1612.5	1600.1
x1 = 0.0786	–	1626.5	–	1601.3
x1 = 0.1243	–	1634.3	1621.2	1607.9
x1 = 0.1783	–	1645.9	1632	1618
x1 = 0.2255	1668.2	1657.2	1643.2	–
x1 = 0.2781	1679.5	1670.1	–	1640.6
x1 = 0.3234	1689.5	–	1667.1	1651.6
x1 = 0.3712	–	–	1678	1662.1
x1 = 0.4096	1706.3	–	1685.2	1669.1
x1 = 0.4763	1716.8	1710.8	–	1679
x1 = 0.5242	1722.8	1716	1700.5	1683.9
x1 = 0.5781	1726.3	1717.7	1701.7	1685
x1 = 0.6254	1725.7	–	1698.4	–
x1 = 0.6771	1723.3	1709.7	1692.5	1675.6
x1 = 0.7226	1716.8	1700.6	1682.6	1665.6
x1 = 0.7683	1708	1689.4	1670.5	1653.2
x1 = 0.8276	1692.8	1671.5	1651.2	1633.6
x1 = 0.8687	1679	1656.7	1635.4	1617.4

Nc1ccccc1 + CC[n+]1ccn(C)c1.F[B-](F)(F)F
speed of sound [m/s]
Details	293.15 K	298.15 K	303.15 K	308.15 K
x1 = 0.0697	–	1622.2	1610.3	–
x1 = 0.0803	1635.7	1622.9	–	1598.9
x1 = 0.1286	1640	1626.7	1614.7	1602.6
x1 = 0.1717	–	1631.2	–	1606.5
x1 = 0.2251	1650.5	1637.2	–	1612.4
x1 = 0.2724	1656.5	–	1630.2	1617.6
x1 = 0.3253	1662.9	–	1636.4	1624.1
x1 = 0.3805	1669.9	–	1642.3	1630.2
x1 = 0.4288	1675	1662	1647.5	1634.5
x1 = 0.4681	1679	1666.2	–	1637.9
x1 = 0.5287	–	1670.4	–	1642
x1 = 0.5755	–	1673.2	–	1643
x1 = 0.6258	–	1673.9	–	1643.3
x1 = 0.6802	–	1673.3	1655.5	–
x1 = 0.7231	–	1672	–	1639.2
x1 = 0.7785	1685.7	1667.6	1648.9	1634.7
x1 = 0.8257	1681.7	1663.2	1644.1	1628.9
x1 = 0.8697	–	–	1638.4	–
